Data from patent US20260049104A1, “PEPTIDES WITH ANTIMICROBIAL PROPERTIES” (priority 2022, published 2026).
Values after ≈ are worked out from the molar mass of the structure shown. Read-outs that look alike come from different tables or passages of the source. No end group written: not given here.

Columns and labels:
[1] = system: Gram-positive and Gram-negative bacteria; conditions: panel of E. coli, K. pneumoniae, E. cloacae, A. baumannii, E. faecalis and S. aureus; preliminary screening
Description: (§1) MIC screening of the peptides against a panel of ATCC and clinical strains was performed using broth microdilution method.^1 Briefly, peptides stock solutions in DMSO (0.1/G TFA) were diluted into Mueller Hinton Broth (MHB), followed by two-fold serial dilution in a 96-well plate. Bacteria culture in mid-log phase was diluted into MHB to yield […] colony-forming units (CFU)/mL. Equal volume of the starting inoculum was added to the peptide samples, then incubated for 18-20 h (37° C., 120 rpm). OD600 of the samples was then measured using Tecan Infinite M200 (TECAN, Männedorf, Switzerland). MIC is defined as the lowest peptide concentration to achieve more than 90% reduction in OD600 relative to the drug-free control. The experiments were repeated three times. Colistin-resistant clinical isolates are a kind gift from Dr. Jeanette Koh (National University Hospital, Singapore). Multidrug-resistant clinical isolates are a kind gift from Dr. Lakshminarayanan Rajamani (Singapore Eye Research Institute, Singapore).
(§2) Kanamycin and ampicillin were used as antibacterial control agents. […] Then, sequential 2-fold serial dilutions of the mix were diluted in 50 μL MH broth and 50 μL cell cultures were added to wells. […] All assays were carried out in triplicate.

Klebsiella pneumoniae = conditions: for MIC value: Table 15, unit inferred
Description: as §1, §2

Escherichia coli = conditions: for MIC value: Table 15, unit inferred
Description: as §1, §2

Acinetobacter baumannii = conditions: Table 15, unit inferred
Description: as §1, §2

Enterobacter cloacae = conditions: Table 15, unit inferred
Description: as §1, §2

Pseudomonas aeruginosa = format: cell-based; conditions: Table 15, unit inferred
Text: The experiments were repeated three times.

[2] = ATCC 25922, printed under Klebsiella pneumoniae
[3] = Acinetobacter baumanii ACβA1001
[4] = Acinetobacter baumanii ACβA1002
[5] = Acinetobacter baumanii ACβA1003
[6] = Acinetobacter baumanii ACβA1004
[7] = Pseudomonas aeruginosa DR4877/07
[8] = Pseudomonas aeruginosa DR5790/07

| Compound | antibacterial activity [1] | MIC value (Klebsiella pneumoniae; [2]) [µg/mL] | MIC value (Klebsiella pneumoniae; CRE1006, Klebsiella pneumoniae) [µg/mL] | MIC value (Klebsiella pneumoniae; Klebsiella pneumoniae CRE 1007) [µg/mL] | MIC value (Klebsiella pneumoniae; Klebsiella pneumoniae CRE1008) [µg/mL] | MIC value (Klebsiella pneumoniae; Klebsiella pneumoniae CRE1011) [µg/mL] | MIC value (Klebsiella pneumoniae; Klebsiella pneumoniae CRE1012) [µg/mL] | MIC value (Escherichia coli; Escherichia coli M2) [µg/mL] | MIC value (Escherichia coli; Escherichia coli M6) [µg/mL] | MIC value (Escherichia coli; Escherichia coli M10) [µg/mL] | MIC value (Escherichia coli; Escherichia coli M11) [µg/mL] | MIC value (Acinetobacter baumannii; [3]) [µg/mL] | MIC value (Acinetobacter baumannii; [4]) [µg/mL] | MIC value (Acinetobacter baumannii; [5]) [µg/mL] | MIC value (Acinetobacter baumannii; [6]) [µg/mL] | MIC value (Enterobacter cloacae; Enterobacter cloacae CRE1010) [µg/mL] | MIC value (Enterobacter cloacae; Enterobacter cloacae CRE1014) [µg/mL] | MIC value (Enterobacter cloacae; Enterobacter cloacae CRE1015) [µg/mL] | MIC value (Enterobacter cloacae; Enterobacter cloacae CRE1016) [µg/mL] | MIC value (Enterobacter cloacae; Enterobacter cloacae CRE1017) [µg/mL] | also measured |
| --- | --- | --- | --- | --- | --- | --- | --- | --- | --- | --- | --- | --- | --- | --- | --- | --- | --- | --- | --- | --- | --- |
| CC(C)C[C@H](NC(=O)[C@H]1NC(=O)[C@H](Cc2ccccc2)NC(=O)[C@@H](NC(=O)[C@@H](NC(=O)[C@H](CCC(=O)O)NC(=O)[C@H](C)NC(=O)[C@@H](NC(=O)[C@H](CO)NC(=O)[C@H](C)N)[C@@H](C)O)[C@@H](C)O)Cc2c[nH]c3cc(ccc23)C1CCCN)C(=O)N[C@@H](CC(=O)O)C(=O)N[C@H]1Cc2c[nH]c3cc(ccc23)C(CCCN)[C@@H](C(=O)N[C@@H](CO)C(=O)N[C@@H](Cc2ccccc2)C(=O)O)NC(=O)[C@H](CCCCN)NC1=O (stereo partly shown) [Compound 21] | no activity | – | – | – | – | – | – | – | – | – | – | – | – | – | – | – | – | – | – | – | – |
| CC[C@H](C)[C@H](NC(=O)CNC(=O)[C@H](CC(=O)O)NC(=O)[C@H](CC(=O)O)NC(=O)[C@H](CC(=O)O)NC(=O)[C@H](CO)NC(=O)[C@@H](N)CO)C(=O)N[C@H]1Cc2ccc(cc2)C(CCCN)[C@@H](C(=O)N[C@H](C(=O)N[C@H](C(=O)N[C@H]2Cc3c[nH]c4cc(ccc34)C(CCNC(=N)N)[C@@H](C(=O)N[C@@H](CCCNC(=N)N)C(=O)O)NC(=O)[C@H](CC(=O)O)NC2=O)[C@@H](C)O)[C@@H](C)O)NC(=O)[C@H](Cc2ccccc2)NC1=O (stereo partly shown) [Compound 22] | no activity | – | – | – | – | – | – | – | – | – | – | – | – | – | – | – | – | – | – | – | – |
| CC(C)[C@H](NC(=O)[C@H](Cc1c[nH]c2ccccc12)NC(=O)CNC(=O)[C@H](CCC(=O)O)NC(=O)CNC(=O)[C@@H](N)CCCNC(=N)N)C(=O)N[C@@H](CCCNC(=N)N)C(=O)N[C@@H](C)C(=O)N[C@@H](Cc1ccc(O)cc1)C(=O)N[C@H]1Cc2c[nH]c3cc(ccc23)C(CCCN)[C@@H](C(=O)N[C@@H](CCCNC(=N)N)C(=O)N[C@@H](Cc2ccccc2)C(=O)O)NC(=O)[C@H](C)NC1=O (stereo partly shown) [Compound 25] | also active against these test bacteria, but weaker than 24 | – | – | – | – | – | – | – | – | – | – | – | – | – | – | – | – | – | – | – | – |
| CC[C@H](C)[C@@H]1NC(=O)[C@@H](NC(=O)[C@H]2NC(=O)[C@H](CC(C)C)NC(=O)[C@@H](NC(=O)[C@H](CCCNC(=N)N)NC(=O)CNC(=O)[C@@H](N)CC(=O)O)Cc3c[nH]c4cc(ccc34)C2CC(N)=O)Cc2c[nH]c3cc(ccc23)C(CCCN)[C@@H](C(=O)N[C@@H](CC(N)=O)C(=O)N[C@@H](Cc2c[nH]cn2)C(=O)O)NC1=O (stereo partly shown) [Compound 27] | – | – | – | – | – | – | – | – | – | – | – | – | – | – | – | – | – | – | – | – | MIC (Klebsiella pneumoniae; Klebsiella pneumoniae ATC 700603, Table 14, preliminary screening): 8 µg/mL (≈ 5.52 µM) |
| C[C@H](NC(=O)[C@H]1NC(=O)[C@H](C)NC(=O)[C@@H](N)Cc2ccc(cc2)C1C(N)=O)C(=O)N[C@H](C(=O)N[C@H]1Cc2c[nH]c3cc(ccc23)C(CCCN)[C@@H](C(=O)N[C@@H](CO)C(=O)N[C@@H](Cc2ccccc2)C(=O)O)NC(=O)[C@H](CO)NC1=O)[C@@H](C)O (stereo partly shown) [Compound 30] | no activity | – | – | – | – | – | – | – | – | – | – | – | – | – | – | – | – | – | – | – | – |
| CC(C)[C@@H]1NC(=O)[C@@H](N)Cc2c[nH]c3cc(ccc23)C(C(N)=O)[C@@H](C(=O)N[C@@H](C)C(=O)N[C@H]2Cc3cccc(c3)C(CCNC(=N)N)[C@@H](C(=O)N[C@H]3Cc4c[nH]c5cc(ccc45)C(CCNC(=N)N)[C@@H](C(=O)N[C@@H](CCCNC(=N)N)C(=O)N[C@@H](Cc4c[nH]c5ccccc45)C(=O)O)NC(=O)[C@H](CO)NC3=O)NC(=O)[C@H](C)NC2=O)NC1=O (stereo partly shown) [xenorceptide A11] | – | 1 (≈ 0.614 µM) | 4 (≈ 2.46 µM) | 4 (≈ 2.46 µM) | 4 (≈ 2.46 µM) | 4 (≈ 2.46 µM) | 4 (≈ 2.46 µM) | 8 (≈ 4.91 µM) | 4 (≈ 2.46 µM) | 2 (≈ 1.23 µM) | 4 (≈ 2.46 µM) | 16 (≈ 9.82 µM) | 16 (≈ 9.82 µM) | 16 (≈ 9.82 µM) | 16 (≈ 9.82 µM) | 4 (≈ 2.46 µM) | 8 (≈ 4.91 µM) | 16 (≈ 9.82 µM) | 8 (≈ 4.91 µM) | 16 (≈ 9.82 µM) | MIC value (Pseudomonas aeruginosa; Pseudomonas aeruginosa DM4150R): 16 µg/mL (≈ 9.82 µM); MIC value (Pseudomonas aeruginosa; Pseudomonas aeruginosa DM23376): 16 µg/mL (≈ 9.82 µM); MIC value (Pseudomonas aeruginosa; [7]): 32 µg/mL (≈ 19.6 µM); MIC value (Pseudomonas aeruginosa; [8]): 32 µg/mL (≈ 19.6 µM) |
| CC(C)[C@@H]1NC(=O)[C@@H](N)Cc2c[nH]c3cc(ccc23)C(C(N)=O)[C@@H](C(=O)N[C@@H](C)C(=O)N[C@H]2Cc3cccc(c3)C(CCNC(=N)N)[C@@H](C(=O)N[C@H]3Cc4c[nH]c5cc(ccc45)C(CCCN)[C@@H](C(=O)N[C@@H](CCCNC(=N)N)C(=O)N[C@@H](Cc4c[nH]c5ccccc45)C(=O)O)NC(=O)[C@H](CO)NC3=O)NC(=O)[C@H](C)NC2=O)NC1=O (stereo partly shown) [xenorceptide A12-1] | – | 2 (≈ 1.25 µM) | 2 (≈ 1.25 µM) | 2 (≈ 1.25 µM) | 4 (≈ 2.5 µM) | 4 (≈ 2.5 µM) | 4 (≈ 2.5 µM) | 8 (≈ 5 µM) | 2 (≈ 1.25 µM) | 2 (≈ 1.25 µM) | 2 (≈ 1.25 µM) | 8 (≈ 5 µM) | 8 (≈ 5 µM) | 8 (≈ 5 µM) | 8 (≈ 5 µM) | 2 (≈ 1.25 µM) | 8 (≈ 5 µM) | 16 (≈ 9.99 µM) | 8 (≈ 5 µM) | 16 (≈ 9.99 µM) | MIC value (Pseudomonas aeruginosa; Pseudomonas aeruginosa DM4150R): 32 µg/mL (≈ 20 µM); MIC value (Pseudomonas aeruginosa; Pseudomonas aeruginosa DM23376): > 32 µg/mL; MIC value (Pseudomonas aeruginosa; [7]): 32 µg/mL (≈ 20 µM); MIC value (Pseudomonas aeruginosa; [8]): 32 µg/mL (≈ 20 µM) |
| CC(C)[C@@H]1NC(=O)[C@@H](N)Cc2c[nH]c3cc(ccc23)C(C(N)=O)[C@@H](C(=O)N[C@@H](C)C(=O)N[C@H]2Cc3cccc(c3)C(CCNC(=N)N)[C@@H](C(=O)N[C@H]3Cc4c[nH]c5cc(ccc45)C(CCCN)[C@@H](C(=O)N[C@@H](CCCNC(=N)N)C(=O)N[C@@H](Cc4ccccc4)C(=O)O)NC(=O)[C@H](CO)NC3=O)NC(=O)[C@H](C)NC2=O)NC1=O (stereo partly shown) [xenorceptide A12-2] | – | 1 (≈ 0.64 µM) | 2 (≈ 1.28 µM) | 4 (≈ 2.56 µM) | 4 (≈ 2.56 µM) | 8 (≈ 5.12 µM) | 4 (≈ 2.56 µM) | 4 (≈ 2.56 µM) | 2 (≈ 1.28 µM) | 2 (≈ 1.28 µM) | 4 (≈ 2.56 µM) | 16 (≈ 10.2 µM) | 8 (≈ 5.12 µM) | 16 (≈ 10.2 µM) | 16 (≈ 10.2 µM) | 2 (≈ 1.28 µM) | 32 (≈ 20.5 µM) | 16 (≈ 10.2 µM) | 16 (≈ 10.2 µM) | 32 (≈ 20.5 µM) | MIC value (Pseudomonas aeruginosa; Pseudomonas aeruginosa DM4150R): 32 µg/mL (≈ 20.5 µM); MIC value (Pseudomonas aeruginosa; Pseudomonas aeruginosa DM23376): 32 µg/mL (≈ 20.5 µM); MIC value (Pseudomonas aeruginosa; [7]): 32 µg/mL (≈ 20.5 µM); MIC value (Pseudomonas aeruginosa; [8]): 32 µg/mL (≈ 20.5 µM) |
| WVNAYARWTKRF [SEQ ID 26] | – | – | – | – | – | – | – | – | – | – | – | – | – | – | – | – | – | – | – | – | MIC (E. coli) (Escherichia coli; strain not stated, product produced and tested against E. coli): 8 µg/mL |
| Xenorceptide B1 (GDRWLKWIKNH; listed as Photorhabdus laumondii) | – | > 32 | > 32 | > 32 | > 32 | > 32 | > 32 | > 32 | > 32 | > 32 | > 32 | > 32 | > 32 | > 32 | > 32 | > 32 | > 32 | > 32 | > 32 | > 32 | MIC value (Acinetobacter baumannii; Acinetobacter baumanii ATCC 19606): > 32 µg/mL; MIC value (Enterobacter cloacae; Enterobacter cloacae ATCC 13047): > 32 µg/mL; MIC value (Pseudomonas aeruginosa; Pseudomonas aeruginosa DM4150R): > 32 µg/mL; MIC value (Pseudomonas aeruginosa; Pseudomonas aeruginosa DM23376): > 32 µg/mL; MIC value (Pseudomonas aeruginosa; [7]): > 32 µg/mL; MIC value (Pseudomonas aeruginosa; [8]): > 32 µg/mL |
